1 compound from patent US20190100555A1, “EYE-CARE PEPTIDE, ITS COMPOSITION AND METHOD OF USING THE SAME” (PRO SUNFUN BIOTECH RESEARCH AND DEVELOPMENT CO., LTD., priority 2017, published 2019) can be followed below.

This data set deals with HCEC cells. Put plainly: MTT assay (cell viability). It is filed as cell-based, Human. As to the method: Human corneal epithelial cell line, HCEC, was cultured in complete KSF containing keratinocyte-serum free medium, 5 ng/ml human recombinant EGF, 0.05 mg/ml bovine pituitary extract, 0.005 mg/ml insulin and 500 ng/ml hydrocortisone under 5% CO2 at 37° C.
Cells (2×10^4) in 1 ml complete KSF were seeded in 12-well plates with or without Peptide NO. 12. Seventy microliters of 5 mg/ml 3-(4,5-dimethyl-2-thiazolyl)-2,5-diphenyl-2H-tetrazolium bromide solution (MTT; Sigma) was added to each well for the indicated times and incubated at 37° C. for 3 hours, after which 700 μl 10% SDS in 0.01 N HCl was added to dissolve the MTT formazan crystals. The resultant optical density was measured spectrophotometrically at dual wavelengths, 550 and 630 nm.
In general terms: Tetrazolium assays rely on reduction of a dye to a coloured formazan, in cell work by metabolically active cells.

Peptide text beside a SMILES is read from it.

As to `CC(C)C[C@H](NC(=O)[C@@H]1CCCN1C(=O)[C@H](CC(N)=O)NC(=O)[C@@H](N)CCCNC(=N)N)C(=O)N[C@@H](CCC(=O)O)C(=O)N[C@@H](CCC(=O)O)C(=O)N[C@H](C(=O)O)[C@@H](C)O` [Peptide NO. 12, ArgAsnProLeuGluGluThr] (H-RNPLEET-OH), the “viability of HCEC cells” value (24 hours, 5, 10, 25 and 50 μg/ml) is “did not significantly affect viability”; the “viability of HCEC cells” value (48 hours, 5, 10, 25 and 50 μg/ml) was “did not significantly affect viability”.
